Cc1nc2n(c(=O)c1CCN1CCC(c3noc4cc(F)ccc34)CC1)CCCC2
solubility (mole fraction)
Settings | 278.15 K | 283.15 K | 288.15 K | 293.15 K | 298.15 K | 303.15 K | 308.15 K | 313.15 K
in acetone | 0.000769 | 0.00111 | 0.00135 | 0.00166 | 0.00208 | 0.00251 | 0.00309 | 0.0039
in ethanol | 0.000876 | 0.00107 | 0.00133 | 0.00156 | 0.00209 | 0.00259 | 0.00333 | 0.00427
in ethyl acetate | 0.00113 | 0.00144 | 0.00165 | 0.00207 | 0.00248 | 0.00297 | 0.00373 | 0.00464
in isobutyl acetate | 0.000791 | 0.00106 | 0.00129 | 0.0015 | 0.00183 | 0.00226 | 0.00266 | 0.0033
in isopropanol | 0.00047 | 0.0006 | 0.000714 | 0.000853 | 0.00111 | 0.00134 | 0.00193 | 0.00271
in isopropyl acetate | 0.000742 | 0.000884 | 0.00102 | 0.00125 | 0.0015 | 0.00186 | 0.00225 | 0.0027
in methanol | 0.00204 | 0.00226 | 0.00273 | 0.00331 | 0.00407 | 0.00506 | 0.00623 | 0.00787
in methyl acetate | 0.00124 | 0.00153 | 0.0018 | 0.00219 | 0.00264 | 0.00329 | 0.00397 | 0.00489
in n-butanol | 0.00144 | 0.00183 | 0.00225 | 0.00291 | 0.00368 | 0.00479 | 0.00621 | 0.00792
in n-butyl acetate | 0.00112 | 0.00129 | 0.00159 | 0.00189 | 0.00241 | 0.00282 | 0.00341 | 0.00386
in n-propanol | 0.00111 | 0.00149 | 0.00199 | 0.00248 | 0.0031 | 0.00409 | 0.00532 | 0.00683
in n-propyl acetate | 0.00116 | 0.00147 | 0.00166 | 0.00202 | 0.00242 | 0.00288 | 0.00357 | 0.00424
in sec-butanol | 0.00187 | 0.00244 | 0.00286 | 0.00361 | 0.00464 | 0.00604 | 0.00769 | 0.00987

Source: BigSolDB 2.1
